The values that follow come from US9187497B2, “Substituted pyrido[3,2-e]pyrrolo[1,2-a]pyrazines as inhibitors of poly(ADP-ribose)polymerase (PARP)” (Takeda Phamaceutical Company Limited, priority 2009, dated 2015).

One test concerns the target T1, PARP (Homo sapiens, UniProt P09874).
T1 construct: purchased Trevigen 4684-096-01 (enzyme); kit 4684-096-K HT
Kind of test: PARP ELISA colorimetric assay of inhibition of PARP catalytic activity (IC50). Format: biochemical. The settings on record: pIC50=-log(IC50), IC50 in molar concentration; ELISA-based PARP kit, 10 minutes of catalysis. As to the method: Inhibition Constant (IC50) from PARP ELISA
Inhibition of PARP catalytic activity was determined by use of an ELISA-based colorimetric PARP/Apoptosis Assay kit (part number 4684-096-K HT, Trevigen). To each histone coated well in the 96-well plate supplied by the manufacturer (part number 4677-096-P) is added 39 μl of PARP buffer (part number 4671-096-02) and 1 μl of test compound dissolved in DMSO (diluted serially 3-fold 11 times). After mixing, 5 μl of 0.1 nM PARP (part number 4684-096-01) is added and the solution allowed to stand at ambient temperature for 10 minutes. PARP catalysis is initiated with the addition of 5 μl of 100 μM β-nicotinamide adenine dinucleotide (NAD+) (part number 4684-096-02) with activated DNA (part number 4671-096-06). After 10 minutes of catalysis the reaction is quenched by solvent aspiration followed by irrigation of the assay wells 4 times with phosphate buffered saline (PBS) containing 0.1% t-Octylphenoxypolyethoxyethanol (Triton® X-100). Mouse Anti-poly ADP ribose (PAR) monoclonal antibody, goat antimouse immunoglobulin G (IgG)-horse radish peroxidase (HRP) conjugate and HRP substrate are added according to the manufacture's specifications to generate a colorimetric signal proportional to PARP catalytic activity. An IC50 for the test compound is calculated from the equation Absorbance=(Amax−background)/(1+([cmpd]/IC50)^n)+background fit to the 12 point test compound concentration gradient via nonlinear least squares.

Another test has as its system Jurkat cell line. Kind of test: PARP cellular chemopotentiation assay (MTS cell viability with and without TMZ). Conditions: ratio of EC50 for inhibition of cell viability without and with 100 μM TMZ; Jurkat cells, 96 hours of treatment. Format: cell-based. The essentials: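 Jurkat cells, 10,000/well, pre-cultured 24 h, then treated 96 h with serial compound dilutions (0.5% DMSO) with or without 100 μM TMZ. Viability by MTS conversion (OD490), normalized to DMSO controls; EC50 from curve fits, PF50 = EC50 without TMZ / EC50 with TMZ.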

Structures are written as SMILES.

T1 sequence (P09874 whole entry): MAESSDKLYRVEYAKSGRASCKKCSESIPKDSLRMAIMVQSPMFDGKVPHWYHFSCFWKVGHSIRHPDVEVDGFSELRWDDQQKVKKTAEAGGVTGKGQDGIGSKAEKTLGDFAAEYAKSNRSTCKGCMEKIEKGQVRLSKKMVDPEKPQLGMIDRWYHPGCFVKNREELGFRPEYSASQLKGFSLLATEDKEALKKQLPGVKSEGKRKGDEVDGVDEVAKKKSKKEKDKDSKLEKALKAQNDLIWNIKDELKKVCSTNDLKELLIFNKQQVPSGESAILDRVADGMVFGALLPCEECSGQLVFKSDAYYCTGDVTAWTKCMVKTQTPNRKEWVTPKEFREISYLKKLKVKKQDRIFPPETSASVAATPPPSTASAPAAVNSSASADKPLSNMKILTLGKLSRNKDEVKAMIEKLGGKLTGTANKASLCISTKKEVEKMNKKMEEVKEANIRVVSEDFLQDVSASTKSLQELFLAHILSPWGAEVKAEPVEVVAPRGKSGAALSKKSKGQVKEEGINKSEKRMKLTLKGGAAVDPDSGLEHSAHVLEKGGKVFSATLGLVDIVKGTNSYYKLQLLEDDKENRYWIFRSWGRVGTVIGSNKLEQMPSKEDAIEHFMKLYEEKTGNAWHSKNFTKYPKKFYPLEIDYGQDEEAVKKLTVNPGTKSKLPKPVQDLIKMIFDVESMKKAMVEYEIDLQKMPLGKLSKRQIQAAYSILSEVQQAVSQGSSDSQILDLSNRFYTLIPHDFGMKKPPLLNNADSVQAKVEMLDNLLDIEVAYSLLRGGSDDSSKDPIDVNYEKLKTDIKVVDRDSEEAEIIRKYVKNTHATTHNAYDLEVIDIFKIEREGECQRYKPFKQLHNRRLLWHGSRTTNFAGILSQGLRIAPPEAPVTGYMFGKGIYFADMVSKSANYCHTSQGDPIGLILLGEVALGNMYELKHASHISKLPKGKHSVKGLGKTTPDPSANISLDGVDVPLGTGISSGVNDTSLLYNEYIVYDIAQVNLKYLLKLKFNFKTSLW

In the case of `O=C1Nc2cc(CN3CCN(c4ccc(Cl)cc4)CC3)cnc2N2CCCC[C@@H]12` [Compound 69, (S)-3-((4-(4-chlorophenyl)piperazin-1-yl)methyl)-7,8,9,10-tetrahydro-5H-dipyrido[1,2-a:3′,2′-e]pyrazin-6(6aH)-one], on PARP, the IC50 was at most 12.6 nM. Further, the PF50 in the test with Jurkat cell line is above 10.

On PARP, `O=C1Nc2cc(CN3CCC(c4ccc(Cl)cc4)CC3)cnc2N2CCCC[C@@H]12` [Compound 70, (S)-3-((4-(4-chlorophenyl)piperidin-1-yl)methyl)-7,8,9,10-tetrahydro-5H-dipyrido[1,2-a:3′,2′-e]pyrazin-6(6aH)-one] had a half-inhibitory concentration (IC50) of at least 50.1 nM. Moreover, in the test on Jurkat cell line, the PF50 entry is “≧0”.

On to `N#Cc1ccc(N2CCN(Cc3cnc4c(c3)NC(=O)[C@@H]3CCCCN43)CC2)nc1` [Compound 72, (S)-6-(4-((6-oxo-6,6a,7,8,9,10-hexahydro-5H-dipyrido[1,2-a:3′,2′-e]pyrazin-3-yl)methyl)piperazin-1-yl)nicotinonitrile], for which the IC50 against PARP is at most 12.6 nM. In addition, in the test on Jurkat cell line, the PF50 is above 500.

At PARP, `CNC(=O)c1ccc(N2CCN(Cc3cnc4c(c3)NC(=O)[C@@H]3CCCCN43)CC2)cc1` [Compound 74, (S)—N-methyl-4-(4-((6-oxo-6,6a,7,8,9,10-hexahydro-5H-dipyrido[1,2-a:3′,2′-e]pyrazin-3-yl)methyl)piperazin-1-yl)benzamide] showed a half-maximal inhibitory concentration (IC50) of at most 12.6 nM. In the test on Jurkat cell line, the PF50 was above 10.

For `O=C(NC1CC1)c1ccc(N2CCN(Cc3cnc4c(c3)NC(=O)[C@@H]3CCCCN43)CC2)cc1` [Compound 75, (S)—N-cyclopropyl-4-(4-((6-oxo-6,6a,7,8,9,10-hexahydro-5H-dipyrido[1,2-a:3′,2′-e]pyrazin-3-yl)methyl)piperazin-1-yl)benzamide], the IC50 against PARP was 15.8 to 39.8 nM. Moreover, the PF50 with Jurkat cell line is above 500.

Take `CNC(=O)c1ccc(N2CCN(Cc3cnc4c(c3)NC(=O)[C@@H]3CCCCN43)CC2)nc1` [Compound 77, (S)—N-methyl-6-(4-((6-oxo-6,6a,7,8,9,10-hexahydro-5H-dipyrido[1,2-a:3′,2′-e]pyrazin-3-yl)methyl)piperazin-1-yl)nicotinamide]: the IC50 at PARP was 15.8 to 39.8 nM. Moreover, the PF50 in the test on Jurkat cell line is above 10.

`O=C1Nc2cc(CN3CCN(c4ccc(Cl)cc4)CC3)cnc2N2CCSCC12` (stereo not shown) [Compound 87, 3-((4-(4-chlorophenyl)piperazin-1-yl)methyl)-6a,7,9,10-tetrahydropyrido[3,2-e][1,4]thiazino[4,3-a]pyrazin-6(5H)-one] gave an IC50 against PARP of 15.8 to 39.8 nM. The PF50 in the test on Jurkat cell line is above 10.

For `N#Cc1ccc(N2CCN(Cc3cnc4c(c3)NC(=O)[C@@H]3CSCCN43)CC2)cc1` [Compound 90, (R)-4-(4-((6-oxo-5,6,6a,7,9,10-hexahydropyrido[3,2-e][1,4]thiazino[4,3-a]pyrazin-3-yl)methyl)piperazin-1-yl)benzonitrile], the half-maximal inhibitory concentration (IC50) on PARP was at most 12.6 nM. The PF50 in the test with Jurkat cell line is above 10.

As for `CC(C)N1CC(=O)Nc2cc(CN3CC=C(c4ccc(Cl)cc4)CC3)cnc21` [Compound 94, 7-((4-(4-chlorophenyl)-5,6-dihydropyridin-1(2H)-yl)methyl)-4-isopropyl-3,4-dihydropyrido[2,3-b]pyrazin-2(1H)-one], the IC50 on PARP is at least 50.1 nM. In addition, the PF50 entry in the test with Jurkat cell line is reported as “≧0”.

For the molecule `CC(C)N1CC(=O)Nc2cc(CN3CCN(c4ccc(Cl)cc4)CC3)cnc21` [Compound 95, 7-((4-(4-chlorophenyl)piperazin-1-yl)methyl)-4-isopropyl-3,4-dihydropyrido[2,3-b]pyrazin-2(1H)-one], at PARP, the IC50 is at least 50.1 nM. Further, the PF50 entry in the test with Jurkat cell line was “≧0”.

Consider `N#Cc1ccc(N2CCN(Cc3cnc4c(c3)NC(=O)[C@@H]3CCN43)CC2)cc1` [Compound 102, (S)-4-(4-((6-oxo-6,6a,7,8-tetrahydro-5H-azeto[1,2-a]pyrido[3,2-e]pyrazin-3-yl)methyl)piperazin-1-yl)benzonitrile], for which the IC50 on PARP was 15.8 to 39.8 nM. For the same molecule, the PF50 entry in the test on Jurkat cell line was “≧0”.

For `N#Cc1ccc(N2CCN(Cc3cnc4c(c3)NC(=O)CC3CCCN43)CC2)cc1` (stereo not shown) [Compound 103, 4-(4-((6-oxo-6,7,7a,8,9,10-hexahydro-5H-pyrido[3,2-b]pyrrolo[1,2-d][1,4]diazepin-3-yl)methyl)piperazin-1-yl)benzonitrile], the concentration for half-maximal inhibition (IC50) against PARP was 15.8 to 39.8 nM. Further, in the test with Jurkat cell line, the PF50 entry is on record as “≧0”.

On to `O=C1CC2CCCN2c2ncc(CN3CCN(c4ccc(Cl)cc4)CC3)cc2N1` (stereo not shown) [Compound 104, 3-((4-(4-chlorophenyl)piperazin-1-yl)methyl)-7a,8,9,10-tetrahydro-5H-pyrido[3,2-b]pyrrolo[1,2-d][1,4]diazepin-6(7H)-one], for which the IC50 against PARP was at least 50.1 nM. Besides, the PF50 entry with Jurkat cell line is “≧0”.

In turn, `C[C@H]1CN(c2ccc(C#N)cc2)CCN1Cc1cnc2c(c1)NC(=O)[C@@H]1CSCCN21` [Compound 105, 4-((S)-3-methyl-4-(((R)-6-oxo-5,6,6a,7,9,10-hexahydropyrido[3,2-e][1,4]thiazino[4,3-a]pyrazin-3-yl)methyl)piperazin-1-yl)benzonitrile] showed an IC50 against PARP of 15.8 to 39.8 nM. The PF50 with Jurkat cell line is given as above 10.

Molecule `CCNC(=O)c1ccc(N2CCN(Cc3cnc4c(c3)NC(=O)[C@@H]3CSCCN43)CC2)c(F)c1` [Compound 106, (R)—N-ethyl-3-fluoro-4-(4-((6-oxo-5,6,6a,7,9,10-hexahydropyrido[3,2-e][1,4]thiazino[4,3-a]pyrazin-3-yl)methyl)piperazin-1-yl)benzamide] had a 50% inhibitory concentration (IC50) at PARP of at most 12.6 nM. Moreover, in the test with Jurkat cell line, the PF50 is on record as above 5000.

For the molecule `CCNC(=O)c1ccc(N2CCN(Cc3cnc4c(c3)NC(=O)[C@@H]3CSCCN43)CC2)c(Cl)c1` [Compound 107, (R)-3-chloro-N-ethyl-4-(4-((6-oxo-5,6,6a,7,9,10-hexahydropyrido[3,2-e][1,4]thiazino[4,3-a]pyrazin-3-yl)methyl)piperazin-1-yl)benzamide], the half-inhibitory concentration (IC50) against PARP is 15.8 to 39.8 nM. Further, the PF50 in the test on Jurkat cell line is given as above 2000.

For `CNC(=O)c1ccc(N2CCN(Cc3cnc4c(c3)NC(=O)[C@@H]3CSCCN43)CC2)c(Cl)c1` [Compound 108, (R)-3-chloro-N-methyl-4-(4-((6-oxo-5,6,6a,7,9,10-hexahydropyrido[3,2-e][1,4]thiazino[4,3-a]pyrazin-3-yl)methyl)piperazin-1-yl)benzamide], the half-maximal inhibitory concentration (IC50) on PARP is at most 12.6 nM. Further, the PF50 with Jurkat cell line is above 500.

As for `CCNC(=O)c1ccc(N2CCN(Cc3cnc4c(c3)NC(=O)[C@@H]3CCCCN43)CC2)c(F)c1` [Compound 109, (S)—N-ethyl-3-fluoro-4-(4-((6-oxo-6,6a,7,8,9,10-hexahydro-5H-dipyrido[1,2-a:3′,2′-e]pyrazin-3-yl)methyl)piperazin-1-yl)benzamide], at PARP, the half-inhibitory concentration (IC50) was 15.8 to 39.8 nM. Also, the PF50 in the test with Jurkat cell line was above 2000.

At PARP, `CCNC(=O)c1ccc(N2CCN(Cc3cnc4c(c3)NC(=O)[C@@H]3CCCCN43)CC2)c(Cl)c1` [Compound 110, (S)-3-chloro-N-ethyl-4-(4-((6-oxo-6,6a,7,8,9,10-hexahydro-5H-dipyrido[1,2-a:3′,2′-e]pyrazin-3-yl)methyl)piperazin-1-yl)benzamide] showed an IC50 of 15.8 to 39.8 nM. The PF50 in the test on Jurkat cell line is recorded as above 5000.

On PARP, `CNC(=O)c1ccc(N2CCN(Cc3cnc4c(c3)NC(=O)[C@@H]3CCCCN43)CC2)c(Cl)c1` [Compound 111, (S)-3-chloro-N-methyl-4-(4-((6-oxo-6,6a,7,8,9,10-hexahydro-5H-dipyrido[1,2-a:3′,2′-e]pyrazin-3-yl)methyl)piperazin-1-yl)benzamide] showed a half-maximal inhibitory concentration (IC50) of 15.8 to 39.8 nM. In the test on Jurkat cell line, the PF50 is given as above 5000.

`CNC(=O)c1ccc(N2CCN(Cc3cnc4c(c3)NC(=O)[C@@H]3CCCCN43)CC2)c(F)c1` [Compound 112, (S)-3-fluoro-N-methyl-4-(4-((6-oxo-6,6a,7,8,9,10-hexahydro-5H-dipyrido[1,2-a:3′,2′-e]pyrazin-3-yl)methyl)piperazin-1-yl)benzamide] showed a half-maximal inhibitory concentration (IC50) against PARP of at most 12.6 nM. The PF50 in the test with Jurkat cell line is listed as above 10.

In the case of `CNC(=O)c1ccc(N2CCN(Cc3cnc4c(c3)NC(=O)[C@@H]3CCCCN43)CC2)c(C)c1` [Compound 113, (S)—N,3-dimethyl-4-(4-((6-oxo-6,6a,7,8,9,10-hexahydro-5H-dipyrido[1,2-a:3′,2′-e]pyrazin-3-yl)methyl)piperazin-1-yl)benzamide], the half-inhibitory concentration (IC50) at PARP was at least 50.1 nM. Besides, the PF50 in the test on Jurkat cell line is above 2000.

The molecule `CCNC(=O)c1ccc(N2CCN(Cc3cnc4c(c3)NC(=O)[C@@H]3CCCCN43)CC2)c(C)c1` [Compound 114, (S)—N-ethyl-3-methyl-4-(4-((6-oxo-6,6a,7,8,9,10-hexahydro-5H-dipyrido[1,2-a:3′,2′-e]pyrazin-3-yl)methyl)piperazin-1-yl)benzamide] had a 50% inhibitory concentration (IC50) on PARP of at least 50.1 nM. The PF50 in the test with Jurkat cell line was above 2000.
